From patent publication US20120035265A1, “COMPOSITIONS, METHODS, AND DEVICES FOR THE TREATMENT OF DYSMENORRHEA” (MediciNova, Inc., priority 2010, published 2012)
Like-named read-outs stand apart in the source and are kept apart here.

Columns and labels:
[1] = system: heart rate and mean blood pressure of dam; assay: Heart rate and mean blood pressure of dam in anesthetized pregnant rats; assay type: in vivo, rat; settings: intravenous cumulative dosing
Method: Rats were anesthetized with urethane, and experiments were conducted based on balloon method. Uterine activity and mean blood pressure of dam were led to a pressure amplifier via a pressure transducer. As for heart rate, pulse waves were led to tachometer. Recti-graphs were used for recording. The test substance, control substance, or positive control substance was administered intravenously and cumulatively every 15 minutes, while doses were increased gradually.

[2] = system: uterine muscle isolated from pregnant rats; assay: Interaction of MN-221 and β-adrenoceptor antagonists on spontaneous contraction of uterine muscle isolated from pregnant rats (Schild regression); assay type: cell-based, rat; settings: Rattus norvegicus
Method: The experimental operation of this study was as reported by T. Kawarabayashi et al.^4. After each SD-strain rat on Day 21 of pregnancy was exsanguinated to death, the uterus was isolated to prepare 8 myometrial samples (about 4 mm×10 mm) in the direction of the longitudinal muscle, with the adhesion to the placenta being avoided. Each myometrial sample was suspended with a load of about 1.0 g in an organ bath containing 10 mL of the Locke-Ringer solution at 37° C. […] After the suspended samples became stable for the amplitude and frequency of spontaneous contraction, each antagonist or distilled water was added to the bath to pretreat them for about 15 minutes. […] The contractile force of each sample was outputted through a force displacement transducer to a strain pressure amplifier and recorded with a rectigraph.
Any variable point (peak) with amplitude (tension) of 0.2 g or lower was excluded from analysis. Samples meeting any of the following criteria were rejected or removed from analysis.
Microsoft® Excel 2000 (Microsoft Corp.) was used for summing up or calculating data and preparing figures and tables. […] This EC50 value was used to calculate the concentration ratio (CR) of EC50 when an antagonist was added (for each sample) to that when no antagonist was added (mean value of the whole control group) and the logarithmic value of CR-1 (log [CR-1]).
Then, the added concentration of the antagonist was plotted on the X axis (logarithmic value) and log(CR-1) on the Y axis (Schild plot) to calculate the value of the X-axis intercept (pA2) and slope of the line using linear approximation (Schild regression^5). The slope was statistically compared with a slope of 1 (paired t-test; a probability level of less than 5% was considered significant). […] The mean and standard error were calculated for each data point obtained and indicated to two decimal places (or in 3 significant digit).

[3] = system: women with severe primary dysmenorrhea; assay: Transdermal administration of MN-221 in women with severe primary dysmenorrhea (double-blind cross-over trial); assay type: in vivo, human
Method: The study is conducted in women, aged 15-39 years. Some of them are nulliparous and some are parous. All have regular 25-32 day cycles. They have all suffered from severe dysmenorrhea for more than one year. All the women are incapacitated for 1-2 days every month. During the first menstrual day they have continuous low abdominal pain of varying severity and in some women it is accompanied by nausea and vomiting.
All the women are informed and give their consent before the trial is started. The study is performed as a double-blind cross-over trial in which the patients are given, in random order, MN-221 transdermal patches during one menstrual period and placebo patches of identical appearance during the next period. The patients return to the hospital after the end of each menstrual flow and their dysmenorrheic symptoms are assessed. The therapeutic effect is also assessed and graded as none, weak, and moderate, over to good and very good. All women in the study have signs of ovulation—mid-cycle temperature rise—in the menstrual cycle preceding the trial. The MN-221 or the placebo is given as a five day transdermal patch during menstrual pains. MN-221 is administered as a dose in a range of about 0.02 mg/kg to 1.5 mg/Kg. The volume of the menstrual blood loss is calculated from the hemoglobin content of all the sanitary towels used by the patient and delivered to the department.

[4] = system: women with primary dysmenorrhea; assay: Myometrial activity, uterine blood flow and lower abdominal pain in women with primary dysmenorrhea (intravenous MN-221); assay type: in vivo, human
Method: Myometrial activity and uterine blood flow is recorded in a group of women, aged 16 to 39 years. All have regular cycles of 25 to 32 days. They suffer regularly from menstrual pain. All are so disabled by the condition that they have to abstain from work for one to three days a month, even if they use non-narcotic analgesics. At least during the first menstrual day, all have a continuous lower abdominal pain, which varies in intensity; most of them also complain of symptoms such as nausea and vomiting. The symptoms during the recordings conform to those experienced during previous menstruations.
In the menstrual cycle preceding the investigation, all women have biphasic basal body temperature recordings, and plasma oestradiol and progesterone concentrations which are higher in the middle of the luteal phase than on the first menstrual day. Recordings are made; each begin within 24 hours of the onset of menstruation lasting for more than three hours.
Myometrial activity is recorded as changes in intrauterine pressure by a microtransducer catheter. The transducer is connected to an amplifier and a potentiometer recorder. Uterine blood flow is recorded by a technique based on measuring thermodilution from a heated thermistor to blood flow in the surrounding tissue. The thermistor is placed in contact with the endometrium of the fundus and, consequently, the recordings mainly reflect the blood flow at that site. The thermistor and the pressure transducer are inserted through the cervical canal into the uterus. The receptors are kept in position by the rigidity of the transducer catheter and by use of sterile paste around the catheters in the vagina.
The patients are asked to report all symptoms during recordings, including changes in character and intensity of the menstrual pain. MN-221 is given as a single bolus intravenous injection of 0.30 mg, 0.60 mg, or 0.90 mg. Before and after the administration of MN-221, pulse rate and arterial blood pressure (measured by auscultation) are registered at 5-minute intervals.

[5] = single bolus intravenous injection of 0.30 mg, 0.60 mg, or 0.90 mg

CN(C)C(=O)COc1ccc2c(c1)C[C@@H](NC[C@H](O)c1ccc(O)c(CCO)c1)CC2 [MN-221, (−)-bis(2-{[(2S)-2-({(2R)-2-hydroxy-2-[4-hydroxy-3-(2-hydroxyethyl)phenyl]ethyl}amino)-1,2,3,4-tetrahydronaphthalen-7-yl]oxy}-N,N-dimethyl-acetamide) monosulfate]
decrease in mean blood pressure of dam [1]: significantly small
effect to increase heart rate of dam [1]: significantly weaker than that of any of other agents
EC50 ([2]; MN-221, control group (treated with distilled water), read-out: EC50): 0.843 ± 0.221 nM
EC50 ([2]; MN-221, control group (treated with distilled water), read-out: pD2 (converted)): 0.676 nM
EC50 ([2]; MN-221 after pretreatment with CGP 20712A 1 × 10^−8 mol/L, read-out: EC50): 0.868 ± 0.15 nM
EC50 ([2]; MN-221 after pretreatment with CGP 20712A 1 × 10^−8 mol/L, read-out: pD2 (converted)): 0.692 nM
EC50 ([2]; MN-221 after pretreatment with CGP 20712A 1 × 10^−9 mol/L, read-out: EC50): 1.25 ± 0.148 nM
EC50 ([2]; MN-221 after pretreatment with CGP 20712A 1 × 10^−9 mol/L, read-out: pD2 (converted)): 1.15 nM
EC50 ([2]; MN-221 after pretreatment with CGP 20712A 3 × 10^−9 mol/L, read-out: EC50): 1.05 ± 0.278 nM
EC50 ([2]; MN-221 after pretreatment with CGP 20712A 3 × 10^−9 mol/L, read-out: pD2 (converted)): 0.692 nM
EC50 ([2]; MN-221 after pretreatment with ICI 118,551 1 × 10^−8 mol/L, read-out: EC50): 23.1 ± 6.39 nM
EC50 ([2]; MN-221 after pretreatment with ICI 118,551 1 × 10^−8 mol/L, read-out: pD2 (converted)): 16.6 nM
EC50 ([2]; MN-221 after pretreatment with ICI 118,551 3 × 10^−8 mol/L, read-out: EC50): 50.9 ± 12.7 nM
EC50 ([2]; MN-221 after pretreatment with ICI 118,551 3 × 10^−8 mol/L, read-out: pD2 (converted)): 28.8 nM
EC50 ([2]; MN-221 after pretreatment with ICI 118,551 3 × 10^−9 mol/L, read-out: EC50): 4.6 ± 1.26 nM
EC50 ([2]; MN-221 after pretreatment with ICI 118,551 3 × 10^−9 mol/L, read-out: pD2 (converted)): 2.95 nM
EC50 ([2]; MN-221 after pretreatment with SR 59230A 1 × 10^−8 mol/L, read-out: EC50): 1.54 ± 1.08 nM
EC50 ([2]; MN-221 after pretreatment with SR 59230A 1 × 10^−8 mol/L, read-out: pD2 (converted)): 0.447 nM
EC50 ([2]; MN-221 after pretreatment with SR 59230A 3 × 10^−8 mol/L, read-out: EC50): 1.79 ± 0.499 nM
EC50 ([2]; MN-221 after pretreatment with SR 59230A 3 × 10^−8 mol/L, read-out: pD2 (converted)): 1.07 nM
EC50 ([2]; MN-221 after pretreatment with SR 59230A 3 × 10^−9 mol/L, read-out: EC50): 1.24 ± 0.338 nM
EC50 ([2]; MN-221 after pretreatment with SR 59230A 3 × 10^−9 mol/L, read-out: pD2 (converted)): 0.955 nM
therapeutic response (relief) compared to placebo ([3]; five day transdermal patch, about 0.02 mg/kg to 1.5 mg/Kg): positive response with relief in women as compared to placebo
increase in heart rate, blood pressure, palpitations, tremors, and/or flushes ([3]; transdermal patch, all subjects): substantially no increase in heart rate, blood pressure, palpitations, tremors, and/or flushes
pain relief ([4]; after injection or infusion): pain relief within one minute after injection
increase in heart rate, blood pressure, palpitations, tremors, and/or flushes ([4]; intravenous, all subjects): substantially no increase in heart rate, blood pressure, palpitations, tremors, and/or flushes
duration of effect ([4]; single bolus intravenous injection): lasts for few hours
local uterine blood flow [4, 5]: generally increases
myometrial activity [4, 5]: decreases the myometrial activity
